Data from patent US12698474B2, “B-cell cultivation method” (priority 2017, dated 2026).

Tested on: B-cells obtained from a rabbit immunized with human serum albumin (HSA)
Assay: Co-cultivation of single deposited B-cells with EL-4 B5 feeder cells, detection of antigen-specific (anti-HSA) IgG by ELISA;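 as to HSA+ wells [% IgG+]: relative ranking scale running from o (lowest) to +++++ (highest)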;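 as to HSA+ wells [% total]: relative ranking scale running from o (lowest) to +++++ (highest)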
Format: cell-based
Protocol: In more detail, NZW rabbits, 12-16 weeks old, were immunized with 400 μg recombinant human serum albumin protein (HSA; CAS RN 70024-90-7; Sigma), emulsified with complete Freund's adjuvant, at day 0 by intradermal application, followed by 200 μg HSA emulsified with complete or incomplete Freund's adjuvant at weeks 1, 2, 6, 10 and 23, by alternating intramuscular and subcutaneous injections.
Generally, antibodies produced by single deposited and co-cultivated B-cells or from B-cells obtained from an immunized experimental animal can be characterized with respect to specific antigen binding. The ELISA was performed at room temperature and the ELISA-solution was incubated between the individual steps on a shaker at 20×g. In the first step the antigen was bound to the wells of a 96-well multi well plate. If the antigen was a protein it had been diluted in coating buffer and applied directly to the plate. Peptide antigens were bound via the specific binding pair biotin/streptavidin. The wells of the multi well plate can be already coated with soluble CroteinC (CrC) by the manufacturer. If not, the wells were incubated after the immobilization of the antigen with 200 μl blocking buffer. After the incubation with 100 μl antigen solution per well (pre-coated multi well plate) or 200 μl blocking buffer, respectively, non-bound antigen or blocking buffer was removed by washing with wash buffer. The diluted B-cell supernatants were added in a volume of 100 μl per well and incubated. After the incubation the wells were washed. Afterwards the detection antibody was added in a volume of 100 μl per well. The antibody can be either conjugated to horseradish peroxidase or labeled with biotin. The detection antibody was determined with a streptavidin-horseradish peroxidase conjugate. After the incubation the multi well plate was washed and afterwards 50 μl of a substrate solution containing 3,3′,5,5′ tetramethyl benzidine (TMB) were added per well and incubated for a period as given in Table X. The enzymatic reaction was stopped by the addition of 50 μl sulfuric acid and the optical density was determined at 450 nm and 680 nm with a photometer (Rainbow Thermo ELISA Reader) and the Xread plus-software.
Specifically, the assay was performed at room temperature (RT) on 384-well Maxisorp microtiter plates (Thermo Scientific) with PBS (phosphate buffered saline) buffer supplemented with 0.5% Gelatine and 0.025% Tween V-20. The plates were coated with 0.5 μg/ml of human serum albumin (HSA, Sigma-Aldrich) for at least 2 hours to overnight. After washing (3×) with PBST (PBS with 0.1% Tween®-20) buffer the wells were blocked with PBS with 0.5% Gelatine and 0.1% Tween®-20. Again, the plates were washed 3× and afterwards dilutions of B-cell supernatants were added. After an incubation of 60 min and 3 washing steps with PBST a 1:4000 dilution of a HRP-conjugated anti-rabbit IgG antibody (Amersham) was transferred to the wells and incubated for 60 min. Finally, the plates were repeatedly washed (6×) with PBST and developed with BM Blue® HRP substrate solution for 30 min. Absorbance was measured at 392-405 nm.
Single cell sorted B-cells were cultured in 96-well plates with 200 μl/well EL-4 B5 medium with Pansorbin Cells (SAC) (Calbiochem (Merck), Darmstadt, Deutschland), EL-4 B5 cells (5×10^4/well) and rabbit thymocyte supernatant (TSN) or cytokine mix (CM) with PMA, respectively, for 7 days at 37° C. in an atmosphere of 5% CO2 in the incubator. B-cell culture supernatants were removed for screening and the cells harvested immediately for variable region gene cloning or frozen at −80° C. in 100 μl RLT buffer (Qiagen, Hilden, Germany).

## CCCCCCCCCCCCCC(=O)O[C@@H]1[C@@H](C)[C@@]2(O)[C@@H](C=C(CO)C[C@]3(O)C(=O)C(C)=C[C@@H]23)[C@@H]2C(C)(C)[C@]12OC(C)=O [PMA, (1aR,1bS,4aR,7aS,7bS,8R,9R,9aS)-9a-(acetyloxy)-4a,7b-dihydroxy-3-(hydroxymethyl)-1,1,6,8-tetramethyl-5-oxo-1a,1b,4,4a,5,7a,7b,8,9,9a-decahydro-H-cyclopropa[3,4]benzo[1,2-e]azulen-9-yl myristate]
PMA 0.002 ng/ml, 0.1×CM
  HSA+ wells [% IgG+]: ++
  HSA+ wells [% total]: +
PMA 0.011 ng/ml, 0.032×CM
  HSA+ wells [% IgG+]: +++++
  HSA+ wells [% total]: +++
PMA 0.011 ng/ml, 0.1×CM
  HSA+ wells [% IgG+]: +++++
  HSA+ wells [% total]: +++
PMA 0.054 ng/ml, 0.1×CM
  HSA+ wells [% IgG+]: +++
  HSA+ wells [% total]: +++
PMA 0.095 ng/ml, CM 1x
  Number of anti-HSA antibody positive wells [% of IgG positive wells]: 62.5 % of IgG positive wells
  Number of anti-HSA antibody positive wells [% of total]: 23.8 % of total
PMA 0.127 ng/ml, 0.032×CM
  HSA+ wells [% IgG+]: ++
PMA 0.127 ng/ml, 0.1×CM
  HSA+ wells [% IgG+]: ++
  HSA+ wells [% total]: +
PMA 0.225 ng/ml, 0.1×CM
  HSA+ wells [% IgG+]: ++++
  HSA+ wells [% total]: +++++
PMA 0.3 ng/ml, 0.032×CM
  HSA+ wells [% IgG+]: +++
  HSA+ wells [% total]: ++++
PMA 0.3 ng/ml, CM 0.01x
  Number of anti-HSA antibody positive wells [% of IgG positive wells]: 41.4 % of IgG positive wells
  Number of anti-HSA antibody positive wells [% of total]: 28.6 % of total
PMA 0.3 ng/ml, CM 0.032x
  Number of anti-HSA antibody positive wells [% of IgG positive wells]: 39.0 % of IgG positive wells
  Number of anti-HSA antibody positive wells [% of total]: 27.4 % of total
PMA 0.3 ng/ml, CM 0.1x
  Number of anti-HSA antibody positive wells [% of IgG positive wells]: 42.1 % of IgG positive wells
  Number of anti-HSA antibody positive wells [% of total]: 28.6 % of total
PMA 0.3 ng/ml, CM 0.32x
  Number of anti-HSA antibody positive wells [% of IgG positive wells]: 39.6 % of IgG positive wells
  Number of anti-HSA antibody positive wells [% of total]: 22.6 % of total
PMA 0.3 ng/ml, CM 1x
  Number of anti-HSA antibody positive wells [% of IgG positive wells]: 20.0 % of IgG positive wells
  Number of anti-HSA antibody positive wells [% of total]: 3.6 % of total
PMA 0.534 ng/ml, 0.032×CM
  HSA+ wells [% IgG+]: +++
  HSA+ wells [% total]: ++
PMA 0.534 ng/ml, 0.1×CM
  HSA+ wells [% IgG+]: +++
  HSA+ wells [% total]: +++
PMA 0.535 ng/ml, without CM
  HSA+ wells [% IgG+]: +++++
  HSA+ wells [% total]: +
PMA 0.712 ng/ml, 0.032×CM
  HSA+ wells [% total]: +
PMA 0.712 ng/ml, 0.1×CM
  HSA+ wells [% IgG+]: ++++
  HSA+ wells [% total]: +++
PMA 0.949 ng/ml, 0.032×CM
  HSA+ wells [% IgG+]: +++
  HSA+ wells [% total]: +++++
PMA 0.949 ng/ml, 0.1×CM
  HSA+ wells [% IgG+]: +
PMA 0.95 ng/ml, CM 0x
  Number of anti-HSA antibody positive wells [% of IgG positive wells]: 66.7 % of IgG positive wells
  Number of anti-HSA antibody positive wells [% of total]: 19.0 % of total
PMA 0.95 ng/ml, CM 0.01x
  Number of anti-HSA antibody positive wells [% of IgG positive wells]: 39.7 % of IgG positive wells
  Number of anti-HSA antibody positive wells [% of total]: 27.4 % of total
PMA 0.95 ng/ml, CM 0.032x
  Number of anti-HSA antibody positive wells [% of IgG positive wells]: 45.6 % of IgG positive wells
  Number of anti-HSA antibody positive wells [% of total]: 31.0 % of total
PMA 0.95 ng/ml, CM 0.1x
  Number of anti-HSA antibody positive wells [% of IgG positive wells]: 54.8 % of IgG positive wells
  Number of anti-HSA antibody positive wells [% of total]: 27.4 % of total
PMA 0.95 ng/ml, CM 0.32x
  Number of anti-HSA antibody positive wells [% of IgG positive wells]: 30.0 % of IgG positive wells
  Number of anti-HSA antibody positive wells [% of total]: 7.1 % of total
PMA 0.95 ng/ml, CM 1x
  Number of anti-HSA antibody positive wells [% of IgG positive wells]: 42.9 % of IgG positive wells
  Number of anti-HSA antibody positive wells [% of total]: 3.6 % of total
PMA 0.95 ng/ml, without CM
  HSA+ wells [% IgG+]: +++
PMA 1.266 ng/ml, 0.032×CM
  HSA+ wells [% IgG+]: ++++
  HSA+ wells [% total]: +++++
PMA 1.688 ng/ml, 0.032×CM
  HSA+ wells [% IgG+]: +
  HSA+ wells [% total]: +++++
PMA 1.688 ng/ml, without CM
  HSA+ wells [% IgG+]: +++++
  HSA+ wells [% total]: +++++
PMA 2.25 ng/ml, 0.032×CM
  HSA+ wells [% total]: ++
PMA 2.251 ng/ml, without CM
  HSA+ wells [% IgG+]: +++
  HSA+ wells [% total]: +++++
PMA 3 ng/ml, CM 0.01x
  Number of anti-HSA antibody positive wells [% of IgG positive wells]: 48.3 % of IgG positive wells
  Number of anti-HSA antibody positive wells [% of total]: 33.3 % of total
PMA 3 ng/ml, CM 0.032x
  Number of anti-HSA antibody positive wells [% of IgG positive wells]: 47.5 % of IgG positive wells
  Number of anti-HSA antibody positive wells [% of total]: 34.5 % of total
PMA 3 ng/ml, CM 0.1x
  Number of anti-HSA antibody positive wells [% of IgG positive wells]: 20.0 % of IgG positive wells
  Number of anti-HSA antibody positive wells [% of total]: 7.1 % of total
PMA 3 ng/ml, CM 0.32x
  Number of anti-HSA antibody positive wells [% of IgG positive wells]: 27.3 % of IgG positive wells
  Number of anti-HSA antibody positive wells [% of total]: 3.6 % of total
PMA 3 ng/ml, CM 1x
  Number of anti-HSA antibody positive wells [% of IgG positive wells]: 45.5 % of IgG positive wells
  Number of anti-HSA antibody positive wells [% of total]: 6.0 % of total
PMA 3.999 ng/ml, without CM
  HSA+ wells [% total]: +
PMA 5.331 ng/ml, without CM
  HSA+ wells [% IgG+]: ++
  HSA+ wells [% total]: +++
PMA 7.106 ng/ml, without CM
  HSA+ wells [% IgG+]: +
  HSA+ wells [% total]: ++++
